Experimental findings from ChEMBL document CHEMBL1201862, “PubChem BioAssay data set” (2004) are described below.

Molecules are shown by their SMILES.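 Step 1: Grow cells in 96-well plates. Step 2: Expose to compound for 48 hours at 5 concentrations. Step 3: Interpolate endpoints linearly; if unreached, use highest concentration. Abbreviation: GI50, concentration required for 50% inhibition of growth.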 The source made the active and inactive calls. Rule as the data show it: active = GI50 up to about 1.1 µM and inactive = higher.

Test systems include DMS-114; DMS-273; KM-20L2; LXFL 529; M19-MEL; RXF 631; XF498; HOP-18; BT-549.
Assay in all cases: growth of human tumour cells (NCI), 48 h

Turning to `CC(C)(C)C(=C[S+]([O-])/N=C/c1ccccc1)C(C)(C)C` (centres undefined), the GI50 is 28.1 µM (inactive) in the test on DMS-114; 32.3 µM (inactive) in the test on DMS-273; 52.8 µM (inactive) in the test with KM-20L2; 28.4 µM (inactive) with LXFL 529; 36.1 µM (inactive) with M19-MEL; 38.6 µM (inactive) in the test with RXF 631. Besides, in the test on XF498, the GI50 is 23 µM (inactive).
As to `CC(C)C1CC[C@@H](C)C[C@@]1(O)CC(N)=O` (some centres undefined), the GI50 in the test on DMS-114, in the test with DMS-273, with HOP-18, in the test on KM-20L2, in the test on LXFL 529 and in the test with M19-MEL was > 100 µM (inactive) throughout. The GI50 in the test on RXF 631 was > 100 µM (inactive); in the test with XF498, 0.0344 µM (active).
Consider `CC1C2C=C(O)C(=O)C(C2=O)C1c1ccccc1` (centres undefined), for which the GI50 with DMS-273 is > 100 µM (inactive); in the test on KM-20L2 it was 38.6 µM (inactive); in the test with LXFL 529, > 100 µM (inactive); with M19-MEL, > 100 µM (inactive); with RXF 631 it was > 100 µM (inactive).
Take `Cc1ccccc1-n1c(N)c(-c2nc3ccccc3[nH]2)sc1=S`: the GI50 in the test with DMS-114 is 24.2 µM (inactive); in the test with DMS-273, 18.9 µM (inactive); in the test on HOP-18, 30.2 µM (inactive); with LXFL 529, 22.1 µM (inactive); with M19-MEL, 23.3 µM (inactive); in the test with RXF 631, 24.9 µM (inactive).
As to `COc1ccc(/N=C\c2ccc(N(CCC#N)CCC#N)cc2)cc1`, the GI50 in the test with BT-549 was > 38.9 µM (inactive); in the test on DMS-114, 27.5 µM (inactive); in the test with DMS-273 it was 31.4 µM (inactive); with HOP-18, > 100 µM (inactive); in the test on KM-20L2, 9.68 µM (inactive); in the test with LXFL 529, 7.11 µM (inactive). The GI50 was 34.1 µM (inactive) in the test on M19-MEL and > 100 µM (inactive) with XF498.
Consider `COc1cc(C(=O)C(CO)Oc2ccccc2OC)ccc1O` (centres undefined), for which the GI50 in the test with DMS-114, with DMS-273, in the test with HOP-18, in the test on KM-20L2, with LXFL 529 and in the test with M19-MEL was > 100 µM (inactive) throughout. Further, the GI50 with RXF 631 was > 100 µM (inactive).
For the molecule `N#CCC(=O)N1CCCOCCC1`, the GI50 in the test with DMS-114, in the test with DMS-273, in the test with KM-20L2, in the test with LXFL 529, in the test on M19-MEL and in the test with RXF 631 was > 100 µM (inactive) throughout.
For `N=C(N)NS(=O)(=O)c1ccc(Nc2c3ccccc3nc3c(C(=O)Nc4ccc(S(N)(=O)=O)cc4)ccc(Cl)c23)cc1`, the GI50 in the test on DMS-114, with DMS-273, in the test with HOP-18, with KM-20L2, in the test on LXFL 529 and in the test on M19-MEL was > 100 µM (inactive) throughout. Also, the GI50 in the test on RXF 631 and in the test on XF498 was > 100 µM (inactive) in each case.
With `CCC1C(C)c2c([nH]c3ccccc23)C2C(=O)N(c3ccccc3)C(=O)C21` (centres undefined), the GI50 with DMS-114 was 13.4 µM (inactive); with DMS-273 it was 17.8 µM (inactive); with LXFL 529, 19.6 µM (inactive); in the test with M19-MEL, 15.8 µM (inactive); in the test with RXF 631, 13.5 µM (inactive); with XF498 it was 21.5 µM (inactive).
As for `COC1=CC(=O)c2c(O)c3c(c(O)c2C1=O)C[C@](C)(O)C[C@@H]3O`, the GI50 in the test with BT-549 was 7.76 µM (inactive); with DMS-114, 1.46 µM (inactive); in the test with DMS-273 it was 1.57 µM (inactive); with KM-20L2, > 100 µM (inactive); with LXFL 529, 3.81 µM (inactive); in the test on M19-MEL, 0.296 µM (active). Moreover, the results for the GI50 in the test on RXF 631 and in the test with XF498 were 1.95 µM (inactive) and 2.86 µM (inactive), respectively.
Turning to `COC(=O)C1CC2c3c(c4ccccc4n3C)CC(C1=O)N2C` (centres undefined), the GI50 with DMS-114 was 21.2 µM (inactive); in the test with DMS-273, 20.2 µM (inactive); with HOP-18, 40 µM (inactive); with KM-20L2, 39.8 µM (inactive); in the test with LXFL 529, 39 µM (inactive); in the test with M19-MEL, 49.3 µM (inactive). The GI50 in the test on RXF 631 was 63.4 µM (inactive).
`O=C(CC(=O)N1N=C(n2ccc3ccccc32)CC1c1ccccc1)Nc1ccccc1Cl` (centres undefined): the GI50 in the test on DMS-114, with DMS-273, with HOP-18, in the test with KM-20L2, with LXFL 529 and in the test with M19-MEL was > 100 µM (inactive) throughout. Further, the GI50 in the test on RXF 631 was > 100 µM (inactive).
For the molecule `O=C(NCCCCNc1cccccc1=O)OCc1ccccc1`, the GI50 is 56.4 µM (inactive) with DMS-114; > 100 µM (inactive) in the test on DMS-273; > 100 µM (inactive) in the test with HOP-18; > 100 µM (inactive) with KM-20L2; > 100 µM (inactive) in the test with LXFL 529; > 100 µM (inactive) in the test with M19-MEL. For the same molecule, in the test on RXF 631, the GI50 was > 100 µM (inactive).
For the molecule `CC(=O)C1(O)CC2(c3ccccc3)C(=O)C1(c1ccccc1)C(c1ccccc1)=C2c1ccccc1` (centres undefined), the GI50 is 10.9 µM (inactive) with DMS-114; 44.3 µM (inactive) in the test with DMS-273; > 100 µM (inactive) in the test on KM-20L2; > 100 µM (inactive) in the test with LXFL 529; > 100 µM (inactive) with M19-MEL; 89.1 µM (inactive) with RXF 631. Moreover, the GI50 in the test on XF498 was 6.24 µM (inactive).
Regarding `Cc1ccc(NC(=O)C(=O)CC(=O)c2ccccc2)cc1C`, the GI50 with DMS-114 is 86.9 µM (inactive); in the test on DMS-273, 56.8 µM (inactive); with HOP-18, > 100 µM (inactive); in the test on KM-20L2, > 100 µM (inactive); with LXFL 529, 76.9 µM (inactive); with M19-MEL, > 100 µM (inactive). Moreover, the GI50 in the test with XF498 was > 100 µM (inactive).
